According to the NIST ThermoML archive (doi:10.1021/je800701j):

Assays:
[1] = 101 kPa, Liquid, Pycnometric method
[2] = xn = mol fraction of the nth substance listed; settings: 101 kPa, Liquid, Pycnometric method

CCn1cc[n+](C)c1.O=C([O-])C(F)(F)F [1-ethyl-3-methylimidazolium trifluoroacetate]
[1]
Settings | mass density [kg/m3]
298.1 K | 1301
323.1 K | 1283
348.1 K | 1264
373.1 K | 1250

CC(=O)[O-].CCn1cc[n+](C)c1 [1-ethyl-3-methylimidazolium acetate]
[1]
Settings | mass density [kg/m3]
298.1 K | 1102
323.1 K | 1086
348.1 K | 1073
373.1 K | 1059

CC(=O)[O-].CCn1cc[n+](C)c1 [1-ethyl-3-methylimidazolium acetate] + CCn1cc[n+](C)c1.O=C([O-])C(F)(F)F
[2], x2 = 0
Settings | mass density [kg/m3]
298.1 K | 1102
323.1 K | 1086
348.1 K | 1073
373.1 K | 1059

CCn1cc[n+](C)c1.O=C([O-])C(F)(F)F [1-ethyl-3-methylimidazolium trifluoroacetate] + CC(=O)[O-].CCn1cc[n+](C)c1
mass density [kg/m3], [2]
Settings | 298.1 K | 323.1 K | 348.1 K | 373.1 K
x1 = 0.2464 | 1152 | 1136 | 1121 | 1107
x1 = 0.5002 | 1204 | 1189 | 1172 | 1157
x1 = 0.7468 | 1252 | 1235 | 1217 | 1202
x1 = 1 | 1301 | 1283 | 1264 | 1250
